In patent US20240116985A1, “STAPLED PEPTIDES AND METHODS THEREOF” (priority 2020, published 2024):
In brackets after ≈: the same amount, converted by molar mass. Where two headings read alike, the source gives them in different places.

Tests used:
[1] = target: T1, full-length beta-Catenin (Uniprot ID P35222) (Homo sapiens, UniProt P35222); test: Fluorescence polarization IC50 (beta-catenin / 5FAM-TCF4 10-53 competition); type: binding; details: read-out: beta-Catenin FP IC50
T1 construct: 10 nM full-length beta-Catenin (Uniprot ID P35222)
T1 sequence (P35222 1-781): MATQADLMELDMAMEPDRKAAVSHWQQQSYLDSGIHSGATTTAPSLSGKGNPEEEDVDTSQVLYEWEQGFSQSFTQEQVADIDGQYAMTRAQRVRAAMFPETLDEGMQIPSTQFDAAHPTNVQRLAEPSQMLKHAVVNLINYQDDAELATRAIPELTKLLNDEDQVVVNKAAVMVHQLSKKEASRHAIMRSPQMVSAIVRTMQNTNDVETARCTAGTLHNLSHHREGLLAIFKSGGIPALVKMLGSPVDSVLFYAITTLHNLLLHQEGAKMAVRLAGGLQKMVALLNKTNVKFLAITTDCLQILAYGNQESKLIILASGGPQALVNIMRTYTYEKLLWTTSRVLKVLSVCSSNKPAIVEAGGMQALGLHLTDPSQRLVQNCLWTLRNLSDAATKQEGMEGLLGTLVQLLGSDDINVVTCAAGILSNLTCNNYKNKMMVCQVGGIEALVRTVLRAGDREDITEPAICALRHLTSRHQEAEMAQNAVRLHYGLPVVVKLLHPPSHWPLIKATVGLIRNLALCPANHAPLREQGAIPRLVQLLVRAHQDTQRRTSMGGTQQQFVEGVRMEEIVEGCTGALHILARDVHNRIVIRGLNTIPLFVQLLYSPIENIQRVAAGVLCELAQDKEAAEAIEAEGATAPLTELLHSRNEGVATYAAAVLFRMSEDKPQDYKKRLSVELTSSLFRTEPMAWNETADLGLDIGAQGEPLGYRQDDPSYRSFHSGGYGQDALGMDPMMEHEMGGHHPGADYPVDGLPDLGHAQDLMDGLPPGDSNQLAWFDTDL

[2] = Solubility in PBS; type: physicochemical
Summary of the method: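 Steps: ultracentrifuge the peptide PBS solution, inject the supernatant on HPLC, inject a 50 μM peptide DMSO solution as reference, then calculate solubility as area ratio (PBS/DMSO) × 50 uM.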

[3] = target: T2, beta-catenin/TCF4 engagement (Homo sapiens, UniProt P35222); test: Nano-BRET target engagement assay (B-cat-Halo & TCF4-Luc in HEK293 cells); type: cell-based; details: absolute IC50; read-out: NanoBRET Abs IC50
T2 construct: expressed in transfected cells; host or cells: HEK293
T2 sequence (P35222 1-781): T1 sequence (P35222 1-781)

IC50 [1] [nM]	Solubility ([2]; Solubility (uM)) [µM]	IC50 [3] [nM]	IC50 ([1]; fluorescence polarization) [nM]	Solubility [2] [µM]	SMILES
6	15 (≈ 29.8 µg/mL)	7600	–	–	CC(=O)N1CCC[C@]12CC=CCCCC1(CCCC=CCCCOC(=O)N3CC[C@@](C(=O)N[C@@H](Cc4ccccc4Cl)C(=O)N[C@@H](Cc4csc5ccccc45)C(=O)N[C@@H](CCCCNC(C)C)C(N)=O)(C3)NC(=O)[C@H](CC(N)=O)NC(=O)[C@H](Cc3ccccc3)NC(=O)[C@H](C)NC(=O)[C@H](C)NC(=O)[C@H](CC(=O)O)NC(=O)[C@H](CC(=O)O)NC1=O)NC(=O)[C@H](CC(C)(C)C)NC(=O)[C@H](CC(=O)O)NC2=O (stereo partly drawn) [I-1130, Ac-PL3-Asp-Npg-B5-Asp-Asp-Ala-Ala-Phe-Asn-PyrS2-2C1F-BztA-iPrLys-NH2]
7	39 (≈ 79.8 µg/mL)	18800	–	–	CC(=O)N1CCC[C@]12CC=CCCCC1(CCCC=CCCCOC(=O)N3CC[C@@](C(=O)N[C@@H](Cc4ccccc4Cl)C(=O)N[C@@H](Cc4csc5ccccc45)C(=O)N[C@@H](CCC(N)=O)C(N)=O)(C3)NC(=O)[C@H](CC(N)=O)NC(=O)[C@H](Cc3ccccc3)NC(=O)[C@H](C)NC(=O)[C@H](CCCCNC(C)C)NC(=O)[C@H](CC(=O)O)NC(=O)[C@H](CC(=O)O)NC1=O)NC(=O)[C@H](CC(C)(C)C)NC(=O)[C@H](CC(=O)O)NC2=O (stereo partly drawn) [I-1131, Ac-PL3-Asp-Npg-B5-Asp-Asp-iPrLys-Ala-Phe-Asn-PyrS2-2C1F-BztA-Gln-NH2]
21	49 (≈ 100 µg/mL)	> 20000	–	–	CC(=O)N1CCC[C@]12CC=CCCCC1(CCCC=CCCCOC(=O)N3CC[C@@](C(=O)N[C@@H](Cc4ccccc4Cl)C(=O)N[C@@H](Cc4csc5ccccc45)C(=O)N[C@@H](CCC(N)=O)C(N)=O)(C3)NC(=O)[C@H](CC(N)=O)NC(=O)[C@H](Cc3ccccc3)NC(=O)[C@H](CCCCNC(C)C)NC(=O)[C@H](C)NC(=O)[C@H](CC(=O)O)NC(=O)[C@H](CC(=O)O)NC1=O)NC(=O)[C@H](CC(C)(C)C)NC(=O)[C@H](CC(=O)O)NC2=O (stereo partly drawn) [I-1132, Ac-PL3-Asp-Npg-B5-Asp-Asp-Ala-iPrLys-Phe-Asn-PyrS2-2C1F-BztA-Gln-NH2]
–	40 (≈ 76.7 µg/mL)	14900	16	–	CC(=O)N1CCC[C@]12CC=CCCCC1(CCCC=CCCCOC(=O)N3CC[C@@](C(=O)N[C@@H](Cc4ccccc4Cl)C(=O)N[C@@H](Cc4csc5ccccc45)C(=O)N[C@@H](C(N)=O)[C@H](C)O)(C3)NC(=O)[C@H](CO)NC(=O)[C@H](Cc3ccccc3)NC(=O)[C@H](C)NC(=O)[C@H](C)NC(=O)[C@H](CC(=O)O)NC(=O)[C@H](CC(=O)O)NC1=O)NC(=O)[C@H](CC1CCCCC1)NC(=O)[C@H](CC(=O)O)NC2=O (stereo partly drawn) [I-1136, Ac-PL3-Asp-Cha-B5-Asp-Asp-Ala-Ala-Phe-Ser-PyrS2-2C1F-BztA-dThr-NH2]
–	–	32500	33	10 (≈ 19.4 µg/mL)	CC(=O)N1CCC[C@]12CC=CCCCC1(CCCC=CCCCOC(=O)N3CC[C@@](C(=O)N[C@@H](Cc4ccccc4Cl)C(=O)N[C@@H](Cc4csc5ccccc45)C(=O)N[C@@H](C(N)=O)[C@H](C)O)(C3)NC(=O)[C@H](CC(C)C)NC(=O)[C@H](Cc3ccccc3)NC(=O)[C@H](C)NC(=O)[C@H](C)NC(=O)[C@H](CC(=O)O)NC(=O)[C@H](CC(=O)O)NC1=O)NC(=O)[C@H](CC1CCCCC1)NC(=O)[C@H](CC(=O)O)NC2=O (stereo partly drawn) [I-1140, Ac-PL3-Asp-Cha-B5-Asp-Asp-Ala-Ala-Phe-Leu-PyrS2-2C1F-BztA-dThr-NH2]
–	44 (≈ 84.2 µg/mL)	27300	13	–	CC(=O)N1CCC[C@]12CC=CCCCC1(CCCC=CCCCOC(=O)N3CC[C@@](C(=O)N[C@@H](Cc4ccccc4Cl)C(=O)N[C@@H](Cc4csc5ccccc45)C(=O)N[C@H](C(N)=O)[C@@H](C)O)(C3)NC(=O)[C@H](CO)NC(=O)[C@H](Cc3ccccc3)NC(=O)[C@H](C)NC(=O)[C@H](C)NC(=O)[C@H](CC(=O)O)NC(=O)[C@H](CC(=O)O)NC1=O)NC(=O)[C@H](Cc1ccccc1)NC(=O)[C@H](CC(=O)O)NC2=O (stereo partly drawn) [I-1141, Ac-PL3-Asp-Phe-B5-Asp-Asp-Ala-Ala-Phe-Ser-PyrS2-2C1F-BztA-Thr-NH2]
–	46 (≈ 88 µg/mL)	> 20000	22	–	CC(=O)N1CCC[C@]12CC=CCCCC1(CCCC=CCCCOC(=O)N3CC[C@@](C(=O)N[C@@H](Cc4ccccc4Cl)C(=O)N[C@@H](Cc4csc5ccccc45)C(=O)N[C@@H](C(N)=O)[C@H](C)O)(C3)NC(=O)[C@H](CO)NC(=O)[C@H](Cc3ccccc3)NC(=O)[C@H](C)NC(=O)[C@H](C)NC(=O)[C@H](CC(=O)O)NC(=O)[C@H](CC(=O)O)NC1=O)NC(=O)[C@H](Cc1ccccc1)NC(=O)[C@H](CC(=O)O)NC2=O (stereo partly drawn) [I-1142, Ac-PL3-Asp-Phe-B5-Asp-Asp-Ala-Ala-Phe-Ser-PyrS2-2C1F-BztA-dThr-NH2]
–	44 (≈ 84.2 µg/mL)	33100	12	–	CC(=O)N1CCC[C@]12CC=CCCCC1(CCCC=CCCCOC(=O)N3CC[C@@](C(=O)N[C@@H](Cc4ccccc4Cl)C(=O)N[C@@H](Cc4csc5ccccc45)C(=O)N[C@@H](CCO)C(N)=O)(C3)NC(=O)[C@H](CO)NC(=O)[C@H](Cc3ccccc3)NC(=O)[C@H](C)NC(=O)[C@H](C)NC(=O)[C@H](CC(=O)O)NC(=O)[C@H](CC(=O)O)NC1=O)NC(=O)[C@H](Cc1ccccc1)NC(=O)[C@H](CC(=O)O)NC2=O (stereo partly drawn) [I-1143, Ac-PL3-Asp-Phe-B5-Asp-Asp-Ala-Ala-Phe-Ser-PyrS2-2C1F-BztA-Hse-NH2]
–	–	30600	18	10 (≈ 19.4 µg/mL)	CC(=O)N1CCC[C@]12CC=CCCCC1(CCCC=CCCCOC(=O)N3CC[C@@](C(=O)N[C@@H](Cc4ccccc4Cl)C(=O)N[C@@H](Cc4csc5ccccc45)C(=O)N[C@H](C(N)=O)[C@@H](C)O)(C3)NC(=O)[C@H](CC(C)C)NC(=O)[C@H](Cc3ccccc3)NC(=O)[C@H](C)NC(=O)[C@H](C)NC(=O)[C@H](CC(=O)O)NC(=O)[C@H](CC(=O)O)NC1=O)NC(=O)[C@H](Cc1ccccc1)NC(=O)[C@H](CC(=O)O)NC2=O (stereo partly drawn) [I-1145, Ac-PL3-Asp-Phe-B5-Asp-Asp-Ala-Ala-Phe-Leu-PyrS2-2C1F-BztA-Thr-NH2]
–	18 (≈ 34.9 µg/mL)	> 20000	33	–	CC(=O)N1CCC[C@]12CC=CCCCC1(CCCC=CCCCOC(=O)N3CC[C@@](C(=O)N[C@@H](Cc4ccccc4Cl)C(=O)N[C@@H](Cc4csc5ccccc45)C(=O)N[C@@H](C(N)=O)[C@H](C)O)(C3)NC(=O)[C@H](CC(C)C)NC(=O)[C@H](Cc3ccccc3)NC(=O)[C@H](C)NC(=O)[C@H](C)NC(=O)[C@H](CC(=O)O)NC(=O)[C@H](CC(=O)O)NC1=O)NC(=O)[C@H](Cc1ccccc1)NC(=O)[C@H](CC(=O)O)NC2=O (stereo partly drawn) [I-1146, Ac-PL3-Asp-Phe-B5-Asp-Asp-Ala-Ala-Phe-Leu-PyrS2-2C1F-BztA-dThr-NH2]
–	23 (≈ 45.7 µg/mL)	21100	10	–	CC(=O)N1CCC[C@]12CC=CCCCC1(CCCC=CCCCOC(=O)N3CC[C@@](C(=O)N[C@@H](Cc4ccccc4Cl)C(=O)N[C@@H](Cc4csc5ccccc45)C(=O)N[C@@H](CCC(N)=O)C(N)=O)(C3)NC(=O)[C@H](CO)NC(=O)[C@H](Cc3ccccc3)NC(=O)[C@H](C)NC(=O)[C@H](CC(C)C)NC(=O)[C@H](CC(=O)O)NC(=O)[C@H](CC(=O)O)NC1=O)NC(=O)[C@H](CC1CCCCC1)NC(=O)[C@H](CC(=O)O)NC2=O (stereo partly drawn) [I-1147, Ac-PL3-Asp-Cha-B5-Asp-Asp-Leu-Ala-Phe-Ser-PyrS2-2C1F-BztA-Gln-NH2]
